The structures appear in SMILES notation. Activity calls are given as the source filed them. No cut-off for these calls is given here.

The target of experiment [1] is 5'-AMP-activated protein kinase catalytic subunit alpha-1 (Homo sapiens) (UniProt Q13131). Kind of experiment: Activation of AMPKalpha in human LS 174T cells assessed as phosphorylation at T172 at 1 to 3 uM by Western blotting analysis relative to urea-3,4-diCl. The class given is cell-based. The following applies: LS174T.
Experiment [2] relates to LS174T. Kind of experiment: Inhibition of p70S6K phosphorylation in human LS 174T cells by Western blotting analysis. The experiment is classed as cell-based.
In experiment [3] the test system is LS174T. The experiment can be described thus: Inhibition of p70S6K in human LS 174T cells assessed as decrease in S6 phosphorylation by Western blotting analysis. The experiment is classed as cell-based.
The target in experiment [4] is 5'-AMP-activated protein kinase catalytic subunit alpha-1 (Homo sapiens) (UniProt Q13131). Kind of experiment: Activation of AMPKalpha in human LS 174T cells assessed as phosphorylation at T172 at 1 to 3 uM by Western blotting analysis. The class given is cell-based. The following applies: LS174T.
The test system of another experiment is SW480. The experiment can be described thus: Cytotoxicity against human SW480 cells assessed as growth inhibition after 2 to 4 days. The class given is functional, cell-based.
For experiment [5], the system named is LS174T. Kind of experiment: Cytotoxicity against human LS 174T cells assessed as growth inhibition after 2 to 4 days. The class given is functional, cell-based.
Experiment [6] deals with LS174T. The experiment can be described thus: Activation of AKT in human LS 174T cells assessed as phosphorylation at Ser473 at 3 uM by Western blotting analysis. The class given is cell-based.

Chain of 5'-AMP-activated protein kinase catalytic subunit alpha-1 (Homo sapiens) (Q13131 whole entry, looked up): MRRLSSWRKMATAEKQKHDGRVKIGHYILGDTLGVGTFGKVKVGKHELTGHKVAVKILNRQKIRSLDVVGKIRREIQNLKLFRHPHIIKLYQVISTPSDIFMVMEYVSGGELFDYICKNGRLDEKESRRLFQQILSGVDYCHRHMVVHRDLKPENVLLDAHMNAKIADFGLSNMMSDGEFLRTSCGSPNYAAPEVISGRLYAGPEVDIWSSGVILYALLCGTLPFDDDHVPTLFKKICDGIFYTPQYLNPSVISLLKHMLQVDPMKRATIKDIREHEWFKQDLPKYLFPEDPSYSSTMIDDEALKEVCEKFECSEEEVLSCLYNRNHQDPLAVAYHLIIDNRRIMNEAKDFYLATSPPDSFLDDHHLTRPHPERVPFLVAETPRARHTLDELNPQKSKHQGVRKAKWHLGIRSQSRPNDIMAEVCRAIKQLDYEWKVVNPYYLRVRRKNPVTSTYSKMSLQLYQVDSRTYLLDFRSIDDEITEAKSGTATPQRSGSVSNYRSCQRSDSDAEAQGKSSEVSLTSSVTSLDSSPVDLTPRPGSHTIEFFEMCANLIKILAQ

In the case of `N#Cc1ccc(NC(=O)Nc2ccc(SC(F)(F)F)cc2)cc1`, the fold change (FC) in experiment [1] turned out to be 1.05.
The same measure, in the same setting: under `O=C(Nc1ccc(OC(F)(F)F)cc1)Nc1cc(Cl)cc(Cl)c1` stands 0.82; under `O=C(Nc1ccc(SC(F)(F)F)cc1)Nc1cc(F)c(F)c(F)c1F`, 2.48; under `O=C(Nc1ccc(SC(F)(F)F)cc1)Nc1ccc(Cl)c(C(F)(F)F)c1`, 1.64.
As to `O=C(Nc1ccc(SC(F)(F)F)cc1)Nc1ccc(F)c(Cl)c1`, in experiment [1], the fold change (FC) came to 1.05.
With `O=C(Nc1ccc(SC(F)(F)F)cc1)Nc1cc(F)c(F)cc1F`, the fold change (FC) in experiment [1] is 1.21.
`O=C(Nc1ccc(SC(F)(F)F)cc1)Nc1ccc(C(F)(F)F)cc1`: the fold change (FC) in experiment [1] is 1.19.
`CNC(=O)c1cc(Oc2ccc(NC(=O)Nc3ccc(Cl)c(C(F)(F)F)c3)cc2)ccn1`: the inhibition result in the experiment with LS174T [2] and in the experiment on LS174T [3] was “Active” in each case. For the same molecule, the outcome in experiment [4] was inactive.
On to `O=C(Nc1ccc(SC(F)(F)F)cc1)Nc1cc(Cl)cc(Cl)c1`, for which, in experiment [1], the fold change (FC) was 1.59.
Consider `O=C(Nc1ccc(SC(F)(F)F)cc1)Nc1cccc(Cl)c1F`, for which, in experiment [1], the fold change (FC) worked out at 0.72.
Take `O=C(Nc1ccc(SC(F)(F)F)cc1)Nc1cc(F)c(F)c(F)c1`: the “growth inhibition (GI)” value with SW480 and in the experiment with LS174T [5] was “Active” each time. Also, in experiment [1], the fold change (FC) came out at 2.02.
Take `O=C(Nc1ccc(SC(F)(F)F)cc1)Nc1ccc(F)c(F)c1`: the fold change (FC) in experiment [1] was found to be 1.11.
Take `O=C(Nc1ccc(OC(F)(F)F)cc1)Nc1cc(Cl)c(Cl)c(Cl)c1`: the fold change (FC) in experiment [1] worked out at 0.96.
`O=C(Nc1ccc(C(F)(F)F)cc1)Nc1cccc(SC(F)(F)F)c1`: the fold change (FC) in experiment [1] came to 2.16.
`O=C(Nc1cc(F)cc(F)c1)Nc1cccc(SC(F)(F)F)c1`: the fold change (FC) in experiment [1] was determined as 1.83.
Same read-out and setting: under `O=C(Nc1ccc(OC(F)(F)F)cc1)Nc1ccc(C(F)(F)F)cc1` stands 2.37.
For the molecule `O=C(Nc1ccc(OC(F)(F)F)cc1)Nc1cc(F)c(F)c(F)c1`, the fold change (FC) in experiment [1] came out at 0.99.
On the same count and under the same terms, as for `O=C(Nc1ccc(C(F)(F)F)cc1)Nc1cc(F)c(F)c(F)c1`, the figure is 4; as for `O=C(Nc1ccc(SC(F)(F)F)cc1)Nc1cc(Cl)c(Cl)c(Cl)c1`, 2.32; as for `O=C(Nc1ccc(OC(F)(F)F)cc1)Nc1cc(F)c(F)c(F)c1F`, 0.8.
Still for that read-out and setting: under `O=C(Nc1ccc(SC(F)(F)F)cc1)Nc1ccc(F)c(C(F)(F)F)c1` stands 1.52.
`O=C(Nc1ccc(SC(F)(F)F)cc1)Nc1ccc(Cl)c(Cl)c1`: the “growth inhibition (GI)” value in the experiment on SW480 and with LS174T [5] was “Active” in each case. For the same molecule, the inhibition entry in the experiment with LS174T [2] and with LS174T [3] was “Active” each time. Also, in the experiment on LS174T [6], the result was inactive. Further, in experiment [4], the result was Active.
On to `O=C(Nc1ccc(SC(F)(F)F)cc1)Nc1cccc(F)c1`, for which the fold change (FC) in experiment [1] came out at 0.74.
In the case of `O=C(Nc1ccc(Cl)cc1)Nc1ccc(SC(F)(F)F)cc1`, in experiment [1], the fold change (FC) was determined as 0.71.
With `O=C(Nc1ccc(OC(F)(F)F)cc1)Nc1cc(F)cc(F)c1`, the fold change (FC) in experiment [1] amounted to 1.44.
Still for that read-out and setting: under `O=C(Nc1ccc(SC(F)(F)F)cc1)Nc1c(F)c(F)c(C(=O)O)c(F)c1F` stands 0.86; under `O=C(Nc1cc(Cl)cc(Cl)c1)Nc1cccc(SC(F)(F)F)c1`, 1.94.
For the molecule `O=C(Nc1ccc(SC(F)(F)F)cc1)Nc1ccc(SC(F)(F)F)c(Cl)c1`, in experiment [1], the fold change (FC) was determined as 0.93.
On the same count and under the same terms, as for `O=C(Nc1ccc(SC(F)(F)F)cc1)Nc1cc(F)cc(F)c1`, the figure is 1.14; as for `N#Cc1cc(NC(=O)Nc2ccc(SC(F)(F)F)cc2)ccc1F`, 0.96; as for `O=C(Nc1ccc(OC(F)(F)F)cc1)Nc1ccc(SC(F)(F)F)c(Cl)c1`, 2.6.

Values taken from ChEMBL document CHEMBL2331204, “Fluorinated N,N'-diarylureas as AMPK activators” (Bioorg Med Chem Lett, 2013).
